Read-outs that look alike come from different tables or passages of the source.
Experiments:
[1] = system: HRP-Goat A'Mouse IgG; assay: Enzymatic determination of protein binding to coated medium binding polystyrene plate; settings: coated medium binding PS; versus uncoated high binding polystyrene plate; absorbance 405 nm
Experimental: The surfactants were coated onto a medium binding polystyrene plate (Corning Costar No. 2587) as described in Material and Methods. A medium binding polystyrene plate (Corning Costar No. 2587) and a high binding polystyrene plate (Corning Costar No. 2581) were used as controls.
(a) HRP-Goat A'Mouse IgG: Kirkegaard & Perry Laboratories, Inc. Catalog No. 074-1806. Stock solution: 0.5 mg/ml; working concentration: 0.04 μg/ml. The working concentration was obtained by adding 11 μl of the stock solution per 25 mls of PBS pH 7.4 to produce a work stock (WS), and then diluting 1:6 (i.e., 10 mls WS+50 mls PBS pH 7.4).
(1) 100 μl-well of HRP-Goat A'Mouse IgG at a concentration of 0.04 μg/ml were added to the test wells and incubated for 1 hour at room temperature.
(2) The wells were then washed 5 times with the 1M wash solution. Each wash include a 5 minute soak followed by decanting.
(3) 100 μl/well of substrate (30 mls ABTS+30 mls H2O2) were added to the test wells and incubated for 15 minutes at room temperature in the dark.
(4) 100 μl/well of stopping solution (1% SDS) were added to the test wells.
(5) The plates were then shaken and read at 405 nm.
(6) Reduction in binding was determined by comparing the absorbance measured in step (5) with the absorbance measured for a high binding polystyrene plate which had not been treated with a non-ionic surfactant but otherwise subjected to steps (1) to (5).

[2] = system: Horse IgG; assay: Protein binding by colloidal gold staining, coated medium binding polystyrene plates; settings: coated medium binding PS; IgG 10 μg/ml, pH 9.4
Experimental: Except where indicated, the non-ionic surfactants were applied to the hydrophobic surfaces being tested as a 0.1% (weight/volume) solution in isopropanol. A sufficient amount of coating solution was used to cover the surface being testing with a thin layer of the solution (e.g., 25 μl of the solution per well for a standard 24-well plate). In some cases, the solution was applied to surface by spraying; in others, it was poured onto the surface (into the well). Except where indicated, coated samples were either dried at 70° C. for 30 minutes in an air circulated oven or dried at room temperature overnight to evaporate the isopropanol.
Protein binding was determined in some examples using a colloidal gold straining procedure. In accordance with this procedure, colloidal gold becomes electrostatically attached to bound protein and is detected by measuring absorbance at 550 nanometers. Bio-Rad Laboratories' Colloidal Gold Total Protein Stain was used for this purpose, with absorbance being measured with a Cambridge Technologies Plate Reader (No. 7520).
The surfactants were coated onto medium binding polystyrene plates (Corning Costar No. 2587) as described in Material and Methods.
The plates were incubated with IgG as follows: 0.1 ml of Horse IgG (Pierce Labs) at a working concentration of 10 μg/ml in 0.10M NaHCO3 buffer (pH9.4) were added to each well, incubated 30 minutes on a rocker table, and rinsed with dI H2O. The plates were gold stained overnight (0.3 ml/well), rinsed in dI H2O, air dried, and absorbance was measured at 550 nm.

[3] = system: BSA protein (Bovine Serum Albumin, Fraction V); assay: BSA binding to coated polystyrene 24-well plates at different pH, colloidal gold stain; settings: for Absorbance (550 nm) pH = 9.2: BSA 10 μg/ml in 0.10 M NaHCO3 buffer; for Absorbance (550 nm) pH = 7.4: BSA 10 μg/ml in 0.10 M PBS; for Absorbance (550 nm) pH = 4.6: BSA 10 μg/ml in 0.10 M acetate buffer
Experimental: Polystyrene plates having 24 wells (Corning Costar #9447) were coated as described in Materials and Methods.
BSA protein (Bovine Serum Albumin, Fraction V, Sigma) was prepared at 10 μg/ml in 0.10 M acetate buffer (pH=4.6), in 0.10 M PBS (pH=7.4), and in 0.10 M NaHCO3 buffer (pH=9.2). Wells of each coated plate, along with uncoated controls, were aliquoted 0.50 ml each of the protein solutions. The samples were run in triplicate.
The plates were placed on a rocker table for 30 minutes at 23° C. The protein solutions were then emptied from the plates, and the wells were rinsed three times with dl H2O. Thereafter, 1.0 ml of colloidal gold stain was added to each well (see Materials and Methods). The plates were placed on a rocker table overnight, rinsed three times with dI H2O, and air dried. Absorbance at 550 nm was then read using the Cambridge Technologies Plate Reader.

[4] = system: GAM-IgG-HRP (goat-anti-mouse-IgG-horseradish peroxidase enzyme labeled antibody); assay: Bound enzyme labeled antibody on strips exposed to aqueous surfactant, rinsed or not rinsed, ABTS readout; settings: 0.1% surfactant in H2O/isopropanol (95/5), not dried, rinsed 5x with dI H2O
Experimental: Medium binding (catalog #2587) and high binding (catalog #2581) polystyrene 96-well plates (8-well strips) manufactured by Corning Costar were used as follows. […] Strips were incubated for 30 minutes at room temperature on a rocker table. Strips were then emptied and tapped out. […] Immediately following this procedure, each well was aliquoted 0.10 ml of GAM-IgG-HRP (goat-anti-mouse-IgG-horseradish peroxidase enzyme labeled antibody; Kirkegaard and Perry, Gaithersburg, Md., Catalog #074-1806) at 1.0 μg/ml in PBS buffer pH=7.4). Strips were incubated for one hour at room temperature on a rocker table. Strips were then rinsed 5× with PBS buffer containing 0.02% Tween-20 followed by post rinsing with H2O. […] Absorbance at 405 nm was measured on a Cambridge Technologies #7520 Plate Reader.

[5] = system: MDCK cells; assay: MDCK cell attachment to coated polystyrene 24-well plates; type: cell-based; settings: coated PS 24-well, gamma sterilized, media with 5% FBS, two days, visual
Experimental: The procedures used were as follows. Polystyrene 24-well plates were coated with the non-ionic surfactants listed in Table 5 in accordance with the procedures described in Materials and Methods. Uncoated plates were used as a control. For comparison, plates with a covalently attached acrylamide coating (Corning Costar Catalog #2500) and with a stearic acid coating were also tested. The stearic acid coating was applied in the same manner as the non-ionic surfactants again using a 0.1% (w/v) solution.
The plates were gamma sterilized at 1.5 Mrad and then inoculated with 5.6×10^4 MDCK […] per well in 1 ml of complete media containing 5% FBS (Fetal Bovine Serum). Incubation was carried out at 37° C. in a 5% CO2 atmosphere for two days. The plates were fixed and stained, and cell attachment was noted. Following this, the wells were stained using the colloidal gold technique to detect bound protein. Only visual observations were made.
Experiments were also performed with cells suspended in serum. The cells used in these experiments were MDCK cells. The surfactants used were the same as used in Table 5. Again, reduced binding of the cells to surfaces treated with a non-ionic surfactant was observed.

[6] = system: rat; settings: cited from earlier work

Row | Molecule | % Reduction in Protein Binding [1] [%] | IgG Protein Binding Absorbance (550 nm) [2] | Absorbance (550 nm) pH = 9.2 [3] | Absorbance (550 nm) pH = 7.4 [3] | Absorbance (550 nm) pH = 4.6 [3] | Absorbance (405 nm) High Binding Polystyrene Rinsed [4] | Absorbance (405 nm) Medium Binding Polystyrene Rinsed [4] | MDCK Attachment [5] | LD50 ([6]; in vivo) [grams/Kg] | LD50 [6] [grams/Kg]
1 | CCCCCCCC/C=C\CCCCCCCCOCCOCCO [PEO(2) OLEYL ETHER] | 99.9 | 0.00 | 0.00 | 0.00 | 0.00 | 2.10 | 1.90 |  |  | 
2 | CCCCCCCCCCCCOCCOCCOCCOCCO [PEO(4) LAURYL ETHER] | 99.3 | 0.00 | 0.00 | 0.00 | 0.00 | 2.10 | 1.90 | None | >5 | 
3 | PEO(4) SORBITOL MONO-STEARATE | 99.5 | 0.00 | 0.00 | 0.00 | 0.00 |  |  | None |  | 
4 | PEO(20) SORBITOL TRI-STEARATE | 99.7 | 0.00 | 0.00 | 0.00 | 0.00 |  |  | None |  | 
5 | SORBITOL MONO-OLEATE | 92.7 | 0.00 | 0.00 | 0.00 | 0.00 |  |  |  |  | >39
